Assay results published in PubChem BioAssay AID330 (DTP/NCI, 2004).
“And” between values parts separate entries of the source, which are not always exact repeats. Identical values can stand only once. Toxic doses and inconclusive results are not listed.

System: P388 leukemia ip, CD2F1 mice, survival T/C
Assay: NCI In Vivo Anticancer Drug Screen. Data for tumor model P388 Leukemia (intraperitoneal) in CD2F1 (CDF1) mice
Settings: endpoint: median survival time, higher = longer survival
How it was run: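 Mice carrying the transplanted tumor received test compound or vehicle. Survival was recorded in each group, and the value is the treated-group measurement divided by that of the vehicle-treated control group.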

[1] = dose: 50.0 mg/kg/injection, schedule: Q01DX009 (ip), vehicle: Klucel (hydroxypropylcellulose) (HPC)
[2] = dose: 100.0 mg/kg/injection, schedule: Q01DX009 (ip), vehicle: Klucel (hydroxypropylcellulose) (HPC)
[3] = dose: 200.0 mg/kg/injection, schedule: Q01DX009 (ip), vehicle: Klucel (hydroxypropylcellulose) (HPC)
[4] = dose: 12.5 mg/kg/injection, schedule: Q01DX009 (ip), vehicle: Klucel (hydroxypropylcellulose) (HPC)
[5] = dose: 25.0 mg/kg/injection, schedule: Q01DX009 (ip), vehicle: Klucel (hydroxypropylcellulose) (HPC)
[6] = dose: 12.5 mg/kg/injection, schedule: Q01DX009 (ip), vehicle: saline with Tween-80
[7] = dose: 25.0 mg/kg/injection, schedule: Q01DX009 (ip), vehicle: saline with Tween-80
[8] = dose: 50.0 mg/kg/injection, schedule: Q01DX009 (ip), vehicle: saline with Tween-80
[9] = dose: 100.0 mg/kg/injection, schedule: Q01DX009 (ip), vehicle: saline with Tween-80
[10] = dose: 60.0 mg/kg/injection, schedule: Q01DX005 (ip), vehicle: saline with Tween-80
[11] = dose: 120.0 mg/kg/injection, schedule: Q01DX005 (ip), vehicle: saline with Tween-80
[12] = dose: 50.0 mg/kg/injection, schedule: Q01DX005 (ip), vehicle: Klucel (hydroxypropylcellulose) (HPC)
[13] = dose: 100.0 mg/kg/injection, schedule: Q01DX005 (ip), vehicle: Klucel (hydroxypropylcellulose) (HPC)
[14] = dose: 200.0 mg/kg/injection, schedule: Q01DX005 (ip), vehicle: Klucel (hydroxypropylcellulose) (HPC)
[15] = dose: 60.0 mg/kg/injection, schedule: Q01DX005 (ip), vehicle: saline
[16] = dose: 120.0 mg/kg/injection, schedule: Q01DX005 (ip), vehicle: saline
[17] = dose: 240.0 mg/kg/injection, schedule: Q01DX005 (ip), vehicle: saline
[18] = dose: 50.0 mg/kg/injection, schedule: Q01DX005 (ip), vehicle: saline with Tween-80
[19] = dose: 100.0 mg/kg/injection, schedule: Q01DX005 (ip), vehicle: saline with Tween-80
[20] = dose: 200.0 mg/kg/injection, schedule: Q01DX005 (ip), vehicle: saline with Tween-80
[21] = dose: 12.5 mg/kg/injection, schedule: Q01DX009 (ip), vehicle: saline
[22] = dose: 50.0 mg/kg/injection, schedule: Q01DX009 (ip), vehicle: saline
[23] = dose: 200.0 mg/kg/injection, schedule: Q01DX009 (ip), vehicle: saline with Tween-80
[24] = dose: 400.0 mg/kg/injection, schedule: Q01DX009 (ip), vehicle: saline with Tween-80

For `CCOC(=O)c1nc(Cl)nc(Cl)c1I`, the T/C (dose: 3.13 mg/kg/injection, schedule: Q01DX009 (ip), vehicle: distilled water + Tween-80) was 99 % of control, the T/C (dose: 6.25 mg/kg/injection, schedule: Q01DX009 (ip), vehicle: distilled water + Tween-80) was 110 % of control and the T/C (dose: 12.5 mg/kg/injection, schedule: Q01DX009 (ip), vehicle: distilled water + Tween-80) was 112 % of control and 123 % of control. The T/C (dose: 25.0 mg/kg/injection, schedule: Q01DX009 (ip), vehicle: distilled water + Tween-80) was 101 % of control and 112 % of control and the T/C (dose: 50.0 mg/kg/injection, schedule: Q01DX009 (ip), vehicle: distilled water + Tween-80) was 90 % of control.

In the case of `Cc1ccc2c(c1)nc(-c1ccccn1)n2CCc1ccccn1`, the T/C (dose: 50.0 mg/kg/injection, schedule: Q04DX002 (ip), vehicle: Klucel (hydroxypropylcellulose) (HPC)) is reported as 100 % of control, the T/C (dose: 100.0 mg/kg/injection, schedule: Q04DX002 (ip), vehicle: Klucel (hydroxypropylcellulose) (HPC)) is reported as 102 % of control and the T/C (dose: 200.0 mg/kg/injection, schedule: Q04DX002 (ip), vehicle: Klucel (hydroxypropylcellulose) (HPC)) is reported as 105 % of control.

With `CN1C(=O)NC(C)(c2cccc(N(CCCl)CCCl)c2)C1=O` (stereo unspecified) the T/C [1] was 158 % of control, the T/C [2] was 177 % of control and the T/C [3] was 160 % of control and 205 % of control.

With `COc1cccc2c1C(=O)OC2=O` the T/C [4] was 105 % of control, the T/C [5] was 105 % of control and the T/C [1] was 112 % of control. For the same compound, the T/C [2] was 97 % of control and the T/C [3] was 96 % of control.

In the case of `Nc1ccc(/C=C/c2ccc3ncccc3c2)cc1`, the T/C [6] is reported as 100 % of control, the T/C [7] is reported as 109 % of control and the T/C [8] is reported as 97 % of control.

In the case of `CC(=O)c1c(-c2ccccc2)noc1-c1ccccc1`, the T/C (dose: 100.0 mg/kg/injection, schedule: Q04DX003 (ip), vehicle: saline) is reported as 102 % of control, the T/C (dose: 200.0 mg/kg/injection, schedule: Q04DX003 (ip), vehicle: saline) is reported as 102 % of control and the T/C (dose: 400.0 mg/kg/injection, schedule: Q04DX003 (ip), vehicle: saline) is reported as 101 % of control.

`CC(=O)N1C2C3CCC(C)(OC3(C)C)C21` (stereo unspecified) was tested, and the T/C (dose: 50.0 mg/kg/injection, schedule: Q01DX005 (ip), vehicle: saline) was 107 % of control, the T/C (dose: 100.0 mg/kg/injection, schedule: Q01DX005 (ip), vehicle: saline) was 102 % of control and the T/C (dose: 200.0 mg/kg/injection, schedule: Q01DX005 (ip), vehicle: saline) was 110 % of control.

`CC(=O)Nc1ccc(/C=C/c2ccc(N=C=S)cc2S(=O)(=O)O)c(S(=O)(=O)O)c1` was tested, and the T/C [8] was 110 % of control and the T/C [9] was 110 % of control.

In the case of `O=C1NC(O)(c2ccccc2)c2cnncc21` (stereo unspecified), the T/C [10] is reported as 90 % of control, the T/C [11] is reported as 93 % of control and the T/C (dose: 240.0 mg/kg/injection, schedule: Q01DX005 (ip), vehicle: saline with Tween-80) is reported as 93 % of control.

`CC(C)(C)N1CC(O)C1` was tested, and the T/C (dose: 50.0 mg/kg/injection, schedule: Q01DX001 (ip), vehicle: saline) was 100 % of control, the T/C (dose: 100.0 mg/kg/injection, schedule: Q01DX001 (ip), vehicle: saline) was 98 % of control and the T/C (dose: 200.0 mg/kg/injection, schedule: Q01DX001 (ip), vehicle: saline) was 93 % of control.

For `O=C(Nc1n[nH]c(NC(=O)c2ccc([N+](=O)[O-])cc2)n1)c1ccc([N+](=O)[O-])cc1`, the T/C [12] was 93 % of control, the T/C [13] was 90 % of control and the T/C [14] was 90 % of control.

With `CCCCOC(=O)/C=C(\Cl)C(=O)OCCCC` the T/C [6] was 102 % of control and 106 % of control and 111 % of control, the T/C [7] was 111 % of control and 114 % of control and 118 % of control and the T/C [9] was 86 % of control.

For `O=c1[nH]cncc1CCC1OCCO1`, the T/C [15] was 97 % of control, the T/C [16] was 98 % of control and the T/C [17] was 103 % of control.

In the case of `CC([NH-])C(C)[NH-].[Cl][Pt+2][Cl]` (stereo unspecified), the T/C (dose: 3.12 mg/kg/injection, schedule: Q01DX001 (ip), vehicle: Klucel (hydroxypropylcellulose) (HPC)) is reported as 119 % of control, the T/C (dose: 12.5 mg/kg/injection, schedule: Q01DX001 (ip), vehicle: Klucel (hydroxypropylcellulose) (HPC)) is reported as 153 % of control and 154 % of control and the T/C (dose: 25.0 mg/kg/injection, schedule: Q01DX001 (ip), vehicle: Klucel (hydroxypropylcellulose) (HPC)) is reported as 184 % of control.

For `CC(C)=NOCCC#N`, the T/C [15] was 99 % of control, the T/C [16] was 99 % of control and the T/C [17] was 101 % of control.

For `CC(=O)OCc1c(COC(C)=O)c(C(F)(F)F)n2c1CCC2`, the T/C [1] was 90 % of control, the T/C [2] was 93 % of control and the T/C [3] was 104 % of control.

In the case of `CCOC(=O)C(C)c1ccccc1-c1cccc(OC)c1` (stereo unspecified), the T/C [18] is reported as 94 % of control, the T/C [19] is reported as 97 % of control and the T/C [20] is reported as 103 % of control.

For `CC1(C)CC(C)(O)N(CCc2ccccc2)C(=S)N1` (stereo unspecified), the T/C [12] was 106 % of control, the T/C [13] was 98 % of control and the T/C [14] was 98 % of control.

`O=c1[nH]c2c(ccc3cnccc32)c2c1CCC2` was tested, and the T/C [21] was 122 % of control and the T/C [22] was 94 % of control.

With `CCN(CC)Cc1c(C)[nH]c2cc3c(cc2c1=O)CCCC3` the T/C (dose: 60.0 mg/kg/injection, schedule: Q01DX005 (ip), vehicle: Klucel (hydroxypropylcellulose) (HPC)) was 98 % of control and the T/C (dose: 120.0 mg/kg/injection, schedule: Q01DX005 (ip), vehicle: Klucel (hydroxypropylcellulose) (HPC)) was 90 % of control.

For `CC[As](CC)SC1OC(COC(C)=O)C(OC(C)=O)C(OC(C)=O)C1OC(C)=O` (stereo unspecified), the T/C (dose: 50.0 mg/kg/injection, schedule: Q01DX009 (ip), vehicle: saline + alcohol) was 116 % of control, the T/C [8] was 108 % of control and the T/C (dose: 100.0 mg/kg/injection, schedule: Q01DX009 (ip), vehicle: saline + alcohol) was 180 % of control. The T/C [9] was 115 % of control, the T/C (dose: 200.0 mg/kg/injection, schedule: Q01DX009 (ip), vehicle: saline + alcohol) was 181 % of control and the T/C [23] was 96 % of control. For the same compound, the T/C [24] was 102 % of control.

With `CC(C)(C)C(=O)OC/C=C\COC(=O)c1ccccc1` the T/C [5] was 101 % of control, the T/C [1] was 104 % of control and 95 % of control and 96 % of control and the T/C [2] was 103 % of control and 104 % of control and 122 % of control. The T/C [3] was 111 % of control.

For `O=c1cnn(C2OC(CO)C(O)C2O)c(=O)[nH]1` (stereo unspecified), the T/C [4] was 118 % of control and 120 % of control and the T/C [5] was 109 % of control and 110 % of control.

For `COc1ccc(OC(=O)CCCl)cc1`, the T/C [9] was 113 % of control, the T/C [23] was 108 % of control and the T/C [24] was 104 % of control.

In the case of `CCN(CC)CCNC(=O)C(O)C1CCCCC1` (stereo unspecified), the T/C [10] is reported as 99 % of control and the T/C [11] is reported as 99 % of control.

With `C[C@@]1(CO)[C@H](O)CC[C@@]2(C)[C@H]1CC[C@H]1C[C@@H]3C[C@@]12CC[C@@]3(O)COC(=O)CN` the T/C (dose: 5.0 mg/kg/injection, schedule: Q03HX027 (ip), vehicle: saline + alcohol) was 113 % of control, the T/C (dose: 10.0 mg/kg/injection, schedule: Q03HX027 (ip), vehicle: saline + alcohol) was 118 % of control and the T/C [21] was 105 % of control and 107 % of control. The T/C (dose: 15.0 mg/kg/injection, schedule: Q01DX009 (ip), vehicle: saline + alcohol) was 118 % of control, the T/C (dose: 25.0 mg/kg/injection, schedule: Q01DX005 (iv), vehicle: saline) was 105 % of control and the T/C (dose: 25.0 mg/kg/injection, schedule: Q01DX009 (ip), vehicle: saline) was 107 % of control and 122 % of control. For the same compound, the T/C (dose: 30.0 mg/kg/injection, schedule: Q01DX009 (ip), vehicle: saline + alcohol) was 117 % of control, the T/C (dose: 40.0 mg/kg/injection, schedule: Q03HX027 (ip), vehicle: saline + alcohol) was 106 % of control and the T/C (dose: 50.0 mg/kg/injection, schedule: Q01DX005 (iv), vehicle: saline) was 99 % of control. For the same compound, the T/C [22] was 114 % of control, the T/C (dose: 100.0 mg/kg/injection, schedule: Q01DX005 (iv), vehicle: saline) was 101 % of control and the T/C (dose: 100.0 mg/kg/injection, schedule: Q01DX009 (ip), vehicle: saline) was 122 % of control. For the same compound, the T/C (dose: 120.0 mg/kg/injection, schedule: Q01DX009 (ip), vehicle: saline + alcohol) was 95 % of control and the T/C (dose: 200.0 mg/kg/injection, schedule: Q01DX005 (iv), vehicle: saline) was 115 % of control.

For `C[C@@H]1C[C@@H]2c3cccc4c3c(cn4C)C[C@H]2N(C)C1`, the T/C [18] was 104 % of control, the T/C [19] was 107 % of control and the T/C [20] was 104 % of control.
